Laboratory results: patent publication US20120020940A1, “ANTIMICROBIAL PEPTIDES” (Helmholtz Zentrum München Deutsches Forschungszentrum Für …, priority 2008, published 2012)
No end group written: not given here.

How the values were obtained:
[1] = tested on: Clavibacter michiganensis; test: MIC and lethal concentration (Example 3); format: cell-based; conditions: Table 2; for MIC (>90% inhibition): 1-2 days at 25° C.; for LC, lethal concentration (100% inhibition): at least 4 days of incubation
Procedure: (§1) In-vitro inhibition assays were performed in sterile flat-bottom 96-well plates (Greiner bio-one, Frickenhausen). Antimicrobial peptides were dissolved in 0.01% acetic acid containing 0.2% BSA (500 μg/ml), filter sterilized and stored at −20° C. For inhibition assays dilutions of peptides ranging from 5 to 200 μg/ml were prepared and 10 μl (antibacterial assay) or 20 μl (antifungal assay) of each concentration was loaded per well.
(§2) Bacteria colonies from overnight agar plate cultures were resuspended into 5 ml LB-medium or HPG-medium (OD600 nm=0.08-0.1) and diluted into LB-medium/HPG-medium (1:100). 90 μl of this suspension containing about 10^5-10^6 CFU/ml of tested bacteria were added to each well resulting in final peptide concentrations of 0, 0.5, 1, 2, 5, 10, and 20 μg/ml. […] The lowest concentration, in which there is no observable growth (>90% inhibition) is referred to as minimal inhibitory concentration (MIC). […] For each peptide concentration two identical inhibition assays were performed.

[2] = tested on: Pseudomonas syringae pv. tomato; test: MIC and lethal concentration (Example 3); format: cell-based; conditions: Table 2; for MIC (>90% inhibition): 1-2 days at 25° C.; for LC, lethal concentration (100% inhibition): at least 4 days of incubation
Procedure: as §1, §2

Xanthomonas vesicatoria [3] = test: MIC and lethal concentration (Example 3); format: cell-based; conditions: Table 2; for MIC (>90% inhibition): 1-2 days at 25° C.; for LC, lethal concentration (100% inhibition): at least 4 days of incubation
Procedure: as §1, §2

[4] = tested on: Pectobacterium carotovorum; test: MIC and lethal concentration (Example 3); format: cell-based; conditions: Table 2; for MIC (>90% inhibition): 1-2 days at 25° C.; for LC, lethal concentration (100% inhibition): at least 4 days of incubation
Procedure: as §1, §2

[5] = tested on: Pseudomonas syringae pv. syringae; test: MIC and lethal concentration (Example 3); format: cell-based; conditions: Table 2; for MIC (>90% inhibition): 1-2 days at 25° C.; for LC, lethal concentration (100% inhibition): at least 4 days of incubation
Procedure: as §1, §2

Pseudomonas corrugata [6] = test: MIC and lethal concentration (Example 3); format: cell-based; conditions: Table 2; for MIC (>90% inhibition): 1-2 days at 25° C.; for LC, lethal concentration (100% inhibition): at least 4 days of incubation
Procedure: as §1, §2

[7] = tested on: Pseudomonas syringae pv. tomato; conditions: Pseudomonas syringae pv. tomato; overnight 25° C.; Table 1
Pseudomonas corrugata [8] = conditions: Pseudomonas corrugata; overnight 25° C.; Table 1
[9] = tested on: Pectobacterium carotovorum sub. carotovorum; conditions: Pectobacterium carotovorum sub. carotovorum; overnight 25° C.; Table 1
[10] = tested on: Clavibacter michiganensis sub. michiganensis; conditions: overnight 25° C., Table 1
human erythrocytes = test: Hemolytic activity, hemoglobin release; format: cell-based; conditions: 45 min at 37° C., Table 3
Procedure: The hemolytic activity of the peptides was evaluated by determining hemoglobin release of suspensions of fresh human erythrocytes at 405 nm. Human red blood cells were centrifuged and washed three times with Tris-buffer (10 mM Tris, 150 mM NaCl, pH 7.4). Eighty μl of human red blood cells (1.5×10^9/ml) were added to 20 μl of the peptides solution (peptides dissolved in 0.2% BSA, 0.01% HAc) in 96-well plates (Greiner bio-one, Frickenhausen) and incubated for 45 min at 37° C. The endconcentration of the peptides were 0, 20, 50, 100 and 200 μg/ml. After centrifugation (1500×g, 5 min, 20° C.) 30 μl aliquots of the supernatant were transferred to 96-well plates containing 100 μl water. Hemolysis was measured by absorbance at 405 nm with a microplate reader. 100% hemolysis were determined in 2% SDS. The hemolysis percentage was calculated using the following equation: % hemolysis=[(Abs405 nm in the peptide solution−Abs405 nm in peptides solvent)/(Abs405 nm in 2% SDS−Abs405 nm in peptide solvent)]×100.
Further hemolytic activities of the various peptides of the present invention may be taken from the table depicted in example 3, last row indicated as “Hemolytic activity”. In connection therewith, however, the concentrations are stated where at least 50% hemolysis was observed.

Alternaria alternata = test: MIC, antifungal in-vitro inhibition assay (Example 2); format: cell-based; conditions: Table 1
Procedure: as §1
(§3) Spores of fungi were collected by water washes of sporulating cultures grown on 2% malt extract agar and spore concentration was determined by microscopy. The concentration of the spores was adjusted to 1.5-2×10^3 spores/ml in 2% malt extract medium and 80 μl of fungal spores were added per well. The final peptide concentrations used in the fungal inhibition assays were […]. After overnight incubation at room temperature the plate were put on a rotary shaker (300 rpm) for further two days to ensure consistantly growth. Antifungal effects of the peptides were determined by a microplate reader (Alternaria, Fusarium) at OD590 nm or by visual screening of the plates (Botrytis, Cladosporium).
(§4) The lowest peptide concentration leading to complete inhibition of bacterial growth or spore germination/mycelial growth (minimal inhibition concentration, MIC) was determined for each organism-peptide combination. For each peptide concentration two identical inhibition assays were performed.

Botrytis cinerea = test: as above; format: cell-based; conditions: Table 1
Procedure: as §1, §3, §4

Cladosporium herbarum = test: as above; format: cell-based; conditions: Table 1
Procedure: as §1, §3, §4

[11] = tested on: Pseudomonas syringae pv. syringae; conditions: Pseudomonas syringae pv. syringae; overnight 25° C.; Table 1
Xanthomonas vesicatoria [12] = conditions: Xanthomonas vesicatoria; overnight 25° C.; Table 1

Substance	MIC (>90% inhibition) [1]	LC, lethal concentration (100% inhibition) [1]	MIC (>90% inhibition) [2]	LC, lethal concentration (100% inhibition) [2]	MIC (>90% inhibition) (Xanthomonas vesicatoria [3])	LC, lethal concentration (100% inhibition) (Xanthomonas vesicatoria [3])	MIC (>90% inhibition) [4]	LC, lethal concentration (100% inhibition) [4]	MIC (>90% inhibition) [5]	LC, lethal concentration (100% inhibition) [5]	MIC (>90% inhibition) (Pseudomonas corrugata [6])	LC, lethal concentration (100% inhibition) (Pseudomonas corrugata [6])	Minimal inhibition concentration (MIC) for complete inhibition of spore germination/mycelial growth (Alternaria alternata)	Minimal inhibition concentration (MIC) for complete inhibition of spore germination/mycelial growth (Botrytis cinerea)	Minimal inhibition concentration (MIC) for complete inhibition of spore germination/mycelial growth (Cladosporium herbarum)	further results
LRILRRLLRRLF-NH2 [SP10-7]	5.0/5.0 μg/ml	5.0/5.0 μg/ml	0.5 µg/mL	1.0 µg/mL	5.0s/5.0^ μg/ml	5.0s/5.0^ μg/ml	>10/>10 μg/ml	>10/>10 μg/ml	>10/>10 μg/ml	>10/>10 μg/ml	2.5/2.5 μg/ml	2.5/2.5 μg/ml	–	–	–	–
LRFIKKILKKLI-NH2 [SP10-4]	0.25/0.25 μg/ml	0.25/0.25 μg/ml	1.0/1.0 μg/ml	1.0/1.0 μg/ml	0.1 µg/mL	0.25 µg/mL	2.5/2.5 μg/ml	2.5/2.5 μg/ml	0.25 µg/mL	0.5 µg/mL	2.5/2.5 μg/ml	2.5/2.5 μg/ml	–	–	–	–
LRFLRRILRRLL-NH2 [SP10-8]	0.5/0.5 μg/ml	0.5/0.5 μg/ml	1.0/1.0 μg/ml	1.0/1.0 μg/ml	0.5/0.5 μg/ml	0.5/0.5 μg/ml	2.5 µg/mL	5.0 µg/mL	0.5/0.5 μg/ml	0.5/0.5 μg/ml	0.5 µg/mL	1.0 µg/mL	–	–	–	–
LKALRKALKHLA-NH2 [SP12, LKALRKALKHLA -NH2]	–	–	–	–	–	–	–	–	–	–	–	–	>100 µg/mL	>100 µg/mL	20 µg/mL	Minimal inhibition concentration (MIC) for complete inhibition of bacterial growth [7]: 2.5 µg/mL; Minimal inhibition concentration (MIC) for complete inhibition of bacterial growth (Pseudomonas corrugata [8]): >40 µg/mL; Minimal inhibition concentration (MIC) for complete inhibition of bacterial growth [9]: >40 µg/mL; Minimal inhibition concentration (MIC) for complete inhibition of bacterial growth [10]: >40 µg/mL; Hemolytic activity, concentration where at least 25% hemolysis was observed (human erythrocytes): >200 µg/mL; Minimal inhibition concentration (MIC) for complete inhibition of bacterial growth [11]: 10 µg/mL; Minimal inhibition concentration (MIC) for complete inhibition of bacterial growth (Xanthomonas vesicatoria [12]): 20 µg/mL
LRALAKALKHKL-NH2 [SP11, LRALAKALKHKL -NH2]	–	–	–	–	–	–	–	–	–	–	–	–	>100 µg/mL	>100 µg/mL	20 µg/mL	–
LRFARRALRRLF-NH2 [SP10-9]	1.0/1.0 μg/ml	1.0/1.0 μg/ml	0.25 µg/mL	0.5 µg/mL	1.0 µg/mL	2.5 µg/mL	2.5 µg/mL	5.0 µg/mL	0.25 µg/mL	2.5 µg/mL	0.5 µg/mL	2.5 µg/mL	–	–	–	–
